From patent publication US12036298B2, “Skin care composition and method for treating post-acne marks” (The Procter & Gamble Company, priority 2021, dated 2024)
Values after ≈ are worked out from the molar mass of the structure shown.

Assays:
[1] = Fraction of p-coumaric acid present as conjugate base (acid dissociation) by pH; type: physicochemical; settings: pH 3
Description: (§1) The compositions herein include one or more solubilizers and/or co-solvents to help solubilize the HCA. […] Without being limited by theory, it is believed that the decreased solubility of an HCA at lower pH is due to reduced ability of the HCA to undergo the acid dissociation that forms the conjugate base species observed at higher pH levels. At pH 7, p-coumaric acid exists at approximately 99.6% in its base form; whereas at pH 3, the conjugate base form is only present at approximately […]. As a result of its relatively poor solubility, HCAs can form crystals in an aqueous, low-pH skin care composition. The HCA crystals may impart an undesirable feel to the composition during use (e.g., a rough or grainy feel). HCA crystal formation may also lead to a decrease in the efficacy of the HCA and/or other ingredients in the composition, and/or create an undesirable consumer perception of the skin care composition or manufacturer (e.g., poor quality).

physchem = type: physicochemical; settings: for solubility: 20 °C
Description: as §1
In order to avoid the formation of HCA crystals in the present low-pH compositions, the HCA should have a solubility greater than the intrinsic solubility limit of the composition. […] In this example the HCA would likely crystalize. […] See, Bevill, et al., Polymorphic Cocrystals of Nutraceutical Compound p-Coumaric Acid with Nicotinamide: Characterization, Relative Solid-State Stability, and Conversion to Alternate Stoichiometries, Cryst. Growth Des. 2014, 14, 3, 1438-1448; 2014.

Molecule	conjugate base form present [1]	solubility (physchem; pH 3, aqueous buffer)	solubility (physchem; pH 7, aqueous buffer)	intrinsic solubility (physchem; pH 3.8)
O=C(O)/C=C/c1ccc(O)cc1 [p-coumaric acid]	approximately 13.4%	4000 µg/mL (≈ 24.4 mM)	~345000 µg/mL (≈ 2100 mM)	
hydroxycinnamic acid [HCA]				6800 µg/mL
